# Patent EP0745599A2, “1-(3-Heterocyclylphenyl)-s-triazine-2,4,6-oxo or thiotrione herbicidal agents” (American Cyanamid Company, priority 1995, dated 1996)
# Experiments:
# Type in all cases: in vivo
# Settings in all cases: rated four to five weeks after treatment
# GALIUM APARINE = experiment: Preemergence herbicidal evaluation, GALAP (Galium); set-up: key to GALAP: visual rating scale 0-9 vs control
# Excerpt: (§1) Results of herbicide evaluation are expressed on a rating scale (0-9). The scale is based upon a visual observation of plant stand, vigor, malformation, size, chlorosis and overall plant appearance as compared with a control.
# (§2) The preemergence herbicidal activity of the test compounds of the present invention is exemplified by the following tests in which the seeds of a variety of monocotyledonous and dicotyledonous plants are separately mixed with potting soil and planted on top of approximately one inch of soil in separate pint cups. After planting, the cups are sprayed with the selected aqueous acetone solution containing test compound in sufficient quantity to provide the equivalent of about 0.125 to 0.50 kg per hectare of test compound per cup. The treated cups are then placed on greenhouse benches, watered and cared for in accordance with conventional greenhouse procedures. From four to five weeks after treatment, the tests are terminated and each cup is examined and rated according to the rating system provided in Example 42.
# [1] = system: AMBROSIA ARTEMISIIFOLIA, L.; experiment: Preemergence herbicidal evaluation, AMBEL (Ragweed, Common); set-up: key to AMBEL: visual rating scale 0-9 vs control
# Excerpt: as §1, §2
# [2] = system: ECHINOCHLOA CRUS-GALLI, (L) BEAU; experiment: Postemergence herbicidal evaluation, ECHCG (Barnyardgrass)
# Method: (§3) In the tests, seedling plants are grown in jiffy flats for about two weeks. The test compounds are dispersed in 50/50 acetone/water mixtures containing 0.5% TWEEN®20, a polyoxyethylene sorbitan monolaurate surfactant of Atlas Chemical Industries, in sufficient quantities to provide the equivalent of about 0.125 kg to 0.500 kg per hectare of active compound when applied to the plants through a spray nozzle operating at 40 psi for a predetermined time. After spraying, the plants are placed on greenhouse benches and are cared for in the usual manner, commensurate with conventional greenhouse practices. From four to five weeks after treatment, the seedling plants are examined and rated according to the rating system set forth below. Where more than one test is involved for a given compound, the data are averaged.
# as §1
# [3] = system: TRITICUM AESTIVUM, CV. APOLLO; experiment: Preemergence herbicidal evaluation, TRZAWO (Wheat, Winter, CV. APOLLO); set-up: key to TRZAWO: visual rating scale 0-9 vs control
# Excerpt: as §1, §2
# [4] = system: ORYZA SATIVA, L. TEBONNET; experiment: Preemergence herbicidal evaluation, ORYSAT (Rice, Tebonnet); set-up: key to ORYSAT: visual rating scale 0-9 vs control
# Excerpt: as §1, §2
# [5] = system: GLYCINE MAX(L)MERR. CV. WILLIAMS; experiment: Preemergence herbicidal evaluation, GLXMAW (Soybean, Williams); set-up: key to GLXMAW: visual rating scale 0-9 vs control
# Excerpt: as §1, §2
# [6] = system: SETARIA VIRIDIS, (L) BEAU; experiment: Postemergence herbicidal evaluation, SETVI (Foxtail, Green)
# Method: as §3, §1
# [7] = system: SETARIA VIRIDIS, (L) BEAU; experiment: Preemergence herbicidal evaluation, SETVI (Foxtail, Green); set-up: key to SETVI: visual rating scale 0-9 vs control
# Excerpt: as §1, §2
# IPOMOEA SPP. = experiment: Preemergence herbicidal evaluation, IPOSS (Morningglory Spp.); set-up: key to IPOSS: visual rating scale 0-9 vs control
# Excerpt: as §1, §2
# CASSIA OBTUSIFOLIA, L. = experiment: Preemergence herbicidal evaluation, CASOB (Sicklepod); set-up: key to CASOB: visual rating scale 0-9 vs control
# Excerpt: as §1, §2
# ZEA MAYS L. = experiment: Preemergence herbicidal evaluation, ZEAMX (Corn, Field); set-up: key to ZEAMX: visual rating scale 0-9 vs control
# Excerpt: as §1, §2
# CHENOPODIUM ALBUM, L. = experiment: Preemergence herbicidal evaluation, CHEAL (Lambsquarters, Common); set-up: key to CHEAL: visual rating scale 0-9 vs control
# Excerpt: as §1, §2
# [8] = system: ECHINOCHLOA CRUS-GALLI, (L) BEAU; experiment: Preemergence herbicidal evaluation, ECHCG (Barnyardgrass); set-up: key to ECHCG: visual rating scale 0-9 vs control
# Excerpt: as §1, §2
# [9] = system: ABUTILON THEOPHRASTI, MEDIC.; experiment: Preemergence herbicidal evaluation, ABUTH (Velvetleaf); set-up: key to ABUTH: visual rating scale 0-9 vs control
# Excerpt: as §1, §2
smiles,measurement,setting,value
"C#CCn1c(=O)n(C)c(=O)n(-c2cc(N3C(=O)C4=C(CCCC4)C3=O)c(F)cc2Cl)c1=O [Compound 16, N-{4-Chloro-2-fluoro-5-[hexahydro-3-methyl-2,4,6-trioxo-5-(2-propynyl)-s-triazin-1-yl]phenyl}-1-cyclohexene-1,2-dicarboximide]",GALAP,GALIUM APARINE; Rate 0.125 kg/ha,0.0
same,GALAP,GALIUM APARINE; Rate 0.250 kg/ha,0.0
same,GALAP,GALIUM APARINE; Rate 0.500 kg/ha,4.0
same,AMBEL,[1]; Rate 0.125 kg/ha,0.0
same,AMBEL,[1]; Rate 0.250 kg/ha,0.0
same,AMBEL,[1]; Rate 0.500 kg/ha,2.0
same,Herbicide rating (0-9) ECHCG,[2]; 0.125 kg/ha,0.0
same,Herbicide rating (0-9) ECHCG,[2]; 0.250 kg/ha,0.0
same,Herbicide rating (0-9) ECHCG,[2]; 0.500 kg/ha,0.0
same,TRZAWO,[3]; Rate 0.125 kg/ha,0.0
same,TRZAWO,[3]; Rate 0.250 kg/ha,0.0
same,TRZAWO,[3]; Rate 0.500 kg/ha,0.0
same,ORYSAT,[4]; Rate 0.125 kg/ha,0.0
same,ORYSAT,[4]; Rate 0.250 kg/ha,0.0
same,ORYSAT,[4]; Rate 0.500 kg/ha,0.0
same,GLXMAW,[5]; Rate 0.125 kg/ha,0.0
same,GLXMAW,[5]; Rate 0.250 kg/ha,0.0
same,GLXMAW,[5]; Rate 0.500 kg/ha,0.0
same,Herbicide rating (0-9) SETVI,[6]; 0.125 kg/ha,0.0
same,Herbicide rating (0-9) SETVI,[6]; 0.250 kg/ha,0.0
same,Herbicide rating (0-9) SETVI,[6]; 0.500 kg/ha,0.0
same,SETVI,[7]; Rate 0.125 kg/ha,0.0
same,SETVI,[7]; Rate 0.250 kg/ha,0.0
same,SETVI,[7]; Rate 0.500 kg/ha,3.0
same,IPOSS,IPOMOEA SPP.; Rate 0.125 kg/ha,0.0
same,IPOSS,IPOMOEA SPP.; Rate 0.250 kg/ha,0.0
same,IPOSS,IPOMOEA SPP.; Rate 0.500 kg/ha,0.0
same,CASOB,"CASSIA OBTUSIFOLIA, L.; Rate 0.125 kg/ha",0.0
same,CASOB,"CASSIA OBTUSIFOLIA, L.; Rate 0.250 kg/ha",0.0
same,CASOB,"CASSIA OBTUSIFOLIA, L.; Rate 0.500 kg/ha",0.0
same,ZEAMX,ZEA MAYS L.; Rate 0.125 kg/ha,0.0
same,ZEAMX,ZEA MAYS L.; Rate 0.250 kg/ha,1.0
same,ZEAMX,ZEA MAYS L.; Rate 0.500 kg/ha,2.0
same,CHEAL,"CHENOPODIUM ALBUM, L.; Rate 0.125 kg/ha",6.0
same,CHEAL,"CHENOPODIUM ALBUM, L.; Rate 0.250 kg/ha",8.0
same,CHEAL,"CHENOPODIUM ALBUM, L.; Rate 0.500 kg/ha",9.0
same,ECHCG,[8]; Rate 0.125 kg/ha,0.0
same,ECHCG,[8]; Rate 0.250 kg/ha,0.0
same,ECHCG,[8]; Rate 0.500 kg/ha,0.0
same,ABUTH,[9]; Rate 0.125 kg/ha,2.0
same,ABUTH,[9]; Rate 0.250 kg/ha,6.0
same,ABUTH,[9]; Rate 0.500 kg/ha,9.0
"COC(=O)Cn1c(=O)n(C)c(=O)n(-c2cc(N3C(=O)C4=C(CCCC4)C3=O)c(Cl)cc2Cl)c1=O [Compound 6, Methyl 3-[2,4-dichloro-5-(1-cyclohexene-1,2-dicarboximido)phenyl]tetrahydro-5-methyl-2,4,6-trioxo-s-triazine-1(2H)-acetate]",Herbicide rating (0-9) TRZAWO,[3]; 0.125 kg/ha,2.0
same,Herbicide rating (0-9) TRZAWO,[3]; 0.250 kg/ha,2.0
same,Herbicide rating (0-9) TRZAWO,[3]; 0.500 kg/ha,2.0
same,Herbicide rating (0-9) ORYSAT,[4]; 0.125 kg/ha,4.0
same,Herbicide rating (0-9) ORYSAT,[4]; 0.250 kg/ha,4.0
same,Herbicide rating (0-9) ORYSAT,[4]; 0.500 kg/ha,4.0
same,Herbicide rating (0-9) IPOSS,IPOMOEA SPP.; 0.125 kg/ha,4.0
same,Herbicide rating (0-9) IPOSS,IPOMOEA SPP.; 0.250 kg/ha,4.0
same,Herbicide rating (0-9) IPOSS,IPOMOEA SPP.; 0.500 kg/ha,4.0
same,Herbicide rating (0-9) ECHCG,[8]; 0.125 kg/ha,0.0
same,Herbicide rating (0-9) ECHCG,[8]; 0.250 kg/ha,0.0
same,Herbicide rating (0-9) ECHCG,[8]; 0.500 kg/ha,0.0
"C=CCn1c(=O)n(C)c(=O)n(-c2cc(N3C(=O)C4=C(CCCC4)C3=O)c(F)cc2Cl)c1=O [Compound 17, N-[5-(3-Allylhexahydro-5-methyl-2,4,6-trioxo-s-triazin-1-yl)-4-chloro-2-fluoro-phenyl]-1-cyclohexene-1,2-dicarboximide]",GALAP,GALIUM APARINE; Rate 0.125 kg/ha,0.0
same,GALAP,GALIUM APARINE; Rate 0.250 kg/ha,7.0
same,GALAP,GALIUM APARINE; Rate 0.500 kg/ha,4.0
same,AMBEL,[1]; Rate 0.125 kg/ha,0.0
same,AMBEL,[1]; Rate 0.250 kg/ha,0.0
same,AMBEL,[1]; Rate 0.500 kg/ha,2.0
same,Herbicide rating (0-9) ECHCG,[2]; 0.125 kg/ha,0.0
same,Herbicide rating (0-9) ECHCG,[2]; 0.250 kg/ha,0.0
same,Herbicide rating (0-9) ECHCG,[2]; 0.500 kg/ha,0.0
same,TRZAWO,[3]; Rate 0.125 kg/ha,0.0
same,TRZAWO,[3]; Rate 0.250 kg/ha,0.0
same,TRZAWO,[3]; Rate 0.500 kg/ha,0.0
same,ORYSAT,[4]; Rate 0.125 kg/ha,0.0
same,ORYSAT,[4]; Rate 0.250 kg/ha,0.0
same,ORYSAT,[4]; Rate 0.500 kg/ha,2.0
same,GLXMAW,[5]; Rate 0.125 kg/ha,0.0
same,GLXMAW,[5]; Rate 0.250 kg/ha,0.0
same,GLXMAW,[5]; Rate 0.500 kg/ha,0.0
same,SETVI,[7]; Rate 0.125 kg/ha,0.0
same,SETVI,[7]; Rate 0.250 kg/ha,0.0
same,SETVI,[7]; Rate 0.500 kg/ha,3.0
same,IPOSS,IPOMOEA SPP.; Rate 0.125 kg/ha,0.0
same,IPOSS,IPOMOEA SPP.; Rate 0.250 kg/ha,0.0
same,IPOSS,IPOMOEA SPP.; Rate 0.500 kg/ha,0.0
same,CASOB,"CASSIA OBTUSIFOLIA, L.; Rate 0.125 kg/ha",0.0
same,CASOB,"CASSIA OBTUSIFOLIA, L.; Rate 0.250 kg/ha",0.0
same,CASOB,"CASSIA OBTUSIFOLIA, L.; Rate 0.500 kg/ha",0.0
same,ZEAMX,ZEA MAYS L.; Rate 0.125 kg/ha,0.0
same,ZEAMX,ZEA MAYS L.; Rate 0.250 kg/ha,0.0
same,ZEAMX,ZEA MAYS L.; Rate 0.500 kg/ha,3.0
same,CHEAL,"CHENOPODIUM ALBUM, L.; Rate 0.125 kg/ha",6.0
same,CHEAL,"CHENOPODIUM ALBUM, L.; Rate 0.250 kg/ha",9.0
same,CHEAL,"CHENOPODIUM ALBUM, L.; Rate 0.500 kg/ha",9.0
same,ECHCG,[8]; Rate 0.125 kg/ha,0.0
same,ECHCG,[8]; Rate 0.250 kg/ha,0.0
same,ECHCG,[8]; Rate 0.500 kg/ha,0.0
same,ABUTH,[9]; Rate 0.125 kg/ha,0.0
same,ABUTH,[9]; Rate 0.250 kg/ha,3.0
same,ABUTH,[9]; Rate 0.500 kg/ha,9.0
